Assay results as given in EP1242382B1, “TRICYCLIC PROTEIN KINASE INHIBITORS” (Wyeth, priority 1999, dated 2001).

Target: Mitogen Activated Protein Kinase (Mek-Erk) (Homo sapiens, UniProt P28482+Q02750)
Assay: Mitogen Activated Protein Kinase (MAPK) two component coupled test procedure
Format: biochemical
Protocol: To evaluate inhibitors of the MAP (mitogen activated protein) kinase a two component coupled standard pharmacological test procedure, which measures phosphorylation of a serine/threonine residue in an appropriate sequence in the substrate in the presence and absence of a putative inhibitor, is used. Recombinant human MEK 1 (MAPKK) is first used to activate recombinant human ERK2 (MAPK) and the activated MAPK (ERK) is incubated with substrate (myelin basic protein peptide (MBPP) or Myc peptide) in the presence of ATP, Mg^+2 and radiolabeled ^33P ATP. The phosphorylated peptide is captured on a P 81 phosphocellulose filter (paper filter or embedded in microtiter plate) washed and counted by scintillation methods.
The peptide substrates used in the assay are MBPP, peptide substrate ([sequence]), or synthetic Myc substrate, ([sequence]•5 TFA). The recombinant enzymes used are prepared as GST fusion proteins of human ERK 2 and human MEK 1. […]
The reaction is run as follows in 50 mM Tris kinase buffer, pH 7.4 in a reaction volume of 50 ul. […] The filters are briefly air dried before addition of scintillant and samples are counted in the appropriate scintillation counter set up for reading ^33P isotope.
The raw data is captured as cpm. […] Mean cpm data is tabulated by group and % inhibition by a test compound is calculated as (corrected cpm control-corrected. cpm sample/control) X 100 = % inhibition).

Mitogen Activated Protein Kinase (Mek-Erk), sequence (Q02750 whole entry): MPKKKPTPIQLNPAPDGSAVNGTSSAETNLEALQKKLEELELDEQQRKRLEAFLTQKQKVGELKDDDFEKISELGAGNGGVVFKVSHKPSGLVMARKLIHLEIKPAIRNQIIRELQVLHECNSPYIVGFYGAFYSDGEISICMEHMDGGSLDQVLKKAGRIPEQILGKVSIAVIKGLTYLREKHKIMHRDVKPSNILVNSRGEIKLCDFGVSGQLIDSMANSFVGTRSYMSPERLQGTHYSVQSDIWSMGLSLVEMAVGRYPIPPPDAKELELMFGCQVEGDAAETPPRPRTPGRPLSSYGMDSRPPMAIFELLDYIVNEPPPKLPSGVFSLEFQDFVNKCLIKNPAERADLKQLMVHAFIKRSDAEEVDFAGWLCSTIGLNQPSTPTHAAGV
Mitogen Activated Protein Kinase (Mek-Erk), sequence (P28482 2-360): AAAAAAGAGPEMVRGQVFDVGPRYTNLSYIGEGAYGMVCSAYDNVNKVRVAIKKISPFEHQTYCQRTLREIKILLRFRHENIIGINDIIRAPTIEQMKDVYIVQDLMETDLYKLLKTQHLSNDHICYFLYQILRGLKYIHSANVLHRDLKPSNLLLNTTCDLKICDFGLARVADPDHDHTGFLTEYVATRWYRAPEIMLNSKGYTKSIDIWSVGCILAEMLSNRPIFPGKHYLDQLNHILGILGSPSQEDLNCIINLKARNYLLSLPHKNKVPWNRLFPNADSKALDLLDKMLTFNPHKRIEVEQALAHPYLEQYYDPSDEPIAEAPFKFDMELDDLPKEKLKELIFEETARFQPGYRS

IC50 [µM]	SMILES
> 10	N#Cc1cnc2cc3c(cc2c1Nc1ccc(Oc2ccccc2)cc1)ncn3CCN1CCOCC1 [Example 58, 3-[2-(4-Morpholinyl)ethyl]-8-(4-phenoxyanilino)-3H-imidazo[4,5-g]quinoline-7-carbonitrile]
> 100	N#Cc1cnc2c(oc3ccccc32)c1Nc1ccc(Oc2ccccc2)cc1 [Example 88, 4-(4-Phenoxyphenylamino)benzo[4,5]furo[3,2-b]pyridine-3-carbonitrile]
